# Results reported in US11725173B2, “Highly efficient organoid culture device and system” (CELLARTGEN INC., priority 2018, dated 2023).
# Columns and labels:
# Type in all cases: cell-based
# [1] = system: liver organoid; assay: GSH and ROS distribution by monochlorobimane (mBCL) and dihydroethidium (DHE) assay in liver organoid; details: liver organoid of the THE-F group, APAP 2 to 50 mM
# [2] = system: liver organoid; assay: Toxicity test of liver organoid under drug concentration gradient (syringe pump and mixing channel); details: cultured 48 hours under gradient formed from 50 mM APAP medium and medium containing no APAP
# [3] = system: CYP7A1; assay: CYP7A1 gene expression in liver organoid cultured alone or co-cultured with intestine organoid, bile acid in culture medium; details: compared with DMSO control
# Procedure: (§1) Co-culture of the induced liver organoid and the adult stem cell-derived intestine organoid was performed, and the interaction between the two organoids was analyzed.
# [4] = system: albumin gene; assay: Albumin gene expression in liver organoid cultured alone or co-cultured with intestine organoid, bile acid in culture medium; details: all conditions (liver organoid alone or co-cultured with intestine organoid); compared with DMSO control
# Procedure: as §1
Structure (SMILES),intracellular toxicity and damage of the liver organoid [1],fluorescence of DHE (reactive oxygen species formation) ([1]; at higher concentrations),"fluorescence of mBCL (intracellular glutathione, GSH) ([1]; at higher concentrations)",cytotoxicity in the liver organoid [2],expression level of CYP7A1 ([3]; liver organoid co-cultured with intestine organoid),expression level of CYP7A1 ([3]; liver organoid cultured alone),albumin gene expression [4]
"CC(=O)Nc1ccc(O)cc1 [APAP, acetaminophen]",increased with an increasing concentration,higher,lower,increased as the drug concentration increased,,,
"C[C@H](CCC(=O)O)[C@H]1CC[C@H]2[C@@H]3[C@H](O)C[C@@H]4C[C@H](O)CC[C@]4(C)[C@H]3CC[C@]12C [CDCA, chenodeoxycholic acid]",,,,,a decrease,no difference,no difference in all conditions
